Data: patent publication US10364238B2, “N-((het) arylmethyl)-heteroaryl-carboxamides compounds as plasma kallikrein inhibitors” (KALVISTA PHARMACEUTICALS LIMITED, priority 2014, dated 2019)

Tests used:
Human plasma kallikrein = Human plasma kallikrein (Homo sapiens (Human), UniProt P03952); experiment: Determination of the IC50 for plasma kallikrein; type: biochemical; conditions: 25° C., fluorogenic substrate H-DPro-Phe-Arg-AFC; read-out: IC50 (human PKaI)
Protocol: Determination of the IC50 for Plasma Kallikrein
(§1) Human plasma kallikrein (Protogen) was incubated at 25° C. with the fluorogenic substrate H-DPro-Phe-Arg-AFC and various concentrations of the test compound. Residual enzyme activity (initial rate of reaction) was determined by measuring the change in […] at 410 nm and the IC50 value for the test compound was determined.

Human KLK1 = Human KLK1 (Homo sapiens (Human), UniProt P06870); experiment: Determination of the IC50 for KLK1; type: biochemical; conditions: 25° C., fluorogenic substrate H-DVal-Leu-Arg-AFC
Human KLK1, sequence (P06870 25-262): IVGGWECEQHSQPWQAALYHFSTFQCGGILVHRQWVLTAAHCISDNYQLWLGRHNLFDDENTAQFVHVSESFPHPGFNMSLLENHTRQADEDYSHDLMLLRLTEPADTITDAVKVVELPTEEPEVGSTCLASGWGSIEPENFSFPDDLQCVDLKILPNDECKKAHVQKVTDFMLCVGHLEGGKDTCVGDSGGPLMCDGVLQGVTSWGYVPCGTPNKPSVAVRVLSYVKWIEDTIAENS
Protocol: Determination of the IC50 for KLK1
as §1, with “KLK1 (Callbiochem)” for “plasma kallikrein (Protogen)”, “H-DVal-Leu-Arg-AFC” for “H-DPro-Phe-Arg-AFC”

Human plasma kallikrein, sequence (P03952 391-638): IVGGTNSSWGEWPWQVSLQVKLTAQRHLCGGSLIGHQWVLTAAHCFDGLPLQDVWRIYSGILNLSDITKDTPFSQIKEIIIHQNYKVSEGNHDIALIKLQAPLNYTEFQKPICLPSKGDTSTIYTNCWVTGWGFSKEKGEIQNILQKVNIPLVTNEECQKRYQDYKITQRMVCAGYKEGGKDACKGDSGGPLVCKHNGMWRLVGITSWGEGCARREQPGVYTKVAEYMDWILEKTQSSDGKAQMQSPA
Human plasma kallikrein, sequence (P03952 20-390 partner): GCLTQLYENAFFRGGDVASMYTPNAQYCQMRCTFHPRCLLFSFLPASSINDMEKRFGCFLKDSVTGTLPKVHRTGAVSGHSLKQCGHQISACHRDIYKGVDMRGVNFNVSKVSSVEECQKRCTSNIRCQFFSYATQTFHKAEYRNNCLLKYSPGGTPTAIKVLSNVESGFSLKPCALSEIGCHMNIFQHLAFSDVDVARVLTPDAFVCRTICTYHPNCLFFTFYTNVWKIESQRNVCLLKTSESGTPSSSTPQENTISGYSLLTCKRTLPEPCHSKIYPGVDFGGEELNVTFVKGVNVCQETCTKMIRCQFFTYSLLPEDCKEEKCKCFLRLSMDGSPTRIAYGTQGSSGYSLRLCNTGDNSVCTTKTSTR

SMILES	IC50 (Human plasma kallikrein)	IC50 (Human KLK1)
COc1cccc(CNC(=O)c2cn(Cc3ccc(Cn4cc(C)cn4)cc3)nc2C(F)(F)F)c1F [Example 4, N-[(2-fluoro-3-methoxyphenyl)methyl]-1-({4-[(4-methylpyrazol-1-yl)methyl]phenyl}methyl)-3-(trifluoromethyl)pyrazole-4-carboxamide]	136 nM	> 10000 nM
COc1cccc(CNC(=O)c2cn(Cc3ccc(Cn4cc(C)cn4)cc3)nc2C(F)(F)F)c1 [Example 5, N-[(3-methoxyphenyl)methyl]-1-({4-[(4-methylpyrazol-1-yl)methyl]phenyl}methyl)-3-(trifluoromethyl)pyrazole-4-carboxamide]	364 nM	> 10000 nM
Cc1cnn(Cc2ccc(Cn3cc(C(=O)NCc4cccc(OC(F)(F)F)c4)c(C(F)(F)F)n3)cc2)c1 [Example 7, 1-({4-[(4-methylpyrazol-1-yl)methyl]phenyl}methyl)-N-{[3-(trifluoromethoxy)phenyl]methyl}-3-(trifluoromethyl)pyrazole-4-carboxamide]	> 10000 nM	> 10000 nM
Cc1ccc(CNC(=O)c2cn(Cc3ccc(Cn4cc(C)cn4)cc3)nc2C(F)(F)F)cc1 [Example 8, N-[(4-methylphenyl)methyl]-1-({4-[(4-methylpyrazol-1-yl)methyl]phenyl}methyl)-3-(trifluoromethyl)pyrazole-4-carboxamide]	539 nM	> 10000 nM
COc1ccc(F)c(CNC(=O)c2cn(Cc3ccc(Cn4cc(C)cn4)cc3)nc2C(F)(F)F)c1 [Example 9, N-[(2-fluoro-5-methoxyphenyl)methyl]-1-({4-[(4-methylpyrazol-1-yl)methyl]phenyl}methyl)-3-(trifluoromethyl)pyrazole-4-carboxamide]	239 nM	> 10000 nM
COc1ccc(CNC(=O)c2cn(Cc3ccc(Cn4cc(C)cn4)cc3)nc2C(F)(F)F)c(OC)c1 [Example 10, N-[(2,4-dimethoxyphenyl)methyl]-1-({4-[(4-methylpyrazol-1-yl)methyl]phenyl}methyl)-3-(trifluoromethyl)pyrazole-4-carboxamide]	1270 nM	> 10000 nM
COc1cc(F)c(CNC(=O)c2cn(Cc3ccc(Cn4cc(C)cn4)cc3)nc2C(F)(F)F)c(F)c1 [Example 11, N-[(2,6-difluoro-4-methoxyphenyl)methyl]-1-({4-[(4-methylpyrazol-1-yl)methyl]pheny}methyl)-3-(trifluoromethyl)pyrazole-4-carboxamide]	456 nM	
COc1ccc(CNC(=O)c2cn(Cc3ccc(Cn4cc(C)cn4)cc3)nc2C(F)(F)F)c(C(F)(F)F)c1 [Example 12, N-{[4-methoxy-2-(trifluoromethyl)phenyl]methyl}-1-({4-[(4-methylpyrazol-1-yl)methyl]phenyl}methyl)-3-(trifluoromethyl)pyrazole-4-carboxamide]	746 nM	> 10000 nM
Cc1cnn(Cc2ccc(Cn3cc(C(=O)NCc4c(F)cccc4F)c(C(F)(F)F)n3)cc2)c1 [Example 13, N-[(2,6-difluorophenyl)methyl]-1-({4-[(4-methylpyrazol-1-yl)methyl]phenyl}methyl)-3-(trifluoromethyl)pyrazole-4-carboxamide]	439 nM	> 10000 nM
Cc1cnn(Cc2ccc(Cn3cc(C(=O)NCc4c(F)cccc4Cl)c(C(F)(F)F)n3)cc2)c1 [Example 14, N-[(2-chloro-6-fluorophenyl)methyl]-1-({4-[(4-methylpyrazol-1-yl)methyl]phenyl}methyl)-3-(trifluoromethyl)pyrazole-4-carboxamide]	514 nM	> 10000 nM
Cc1cnn(Cc2ccc(Cn3cc(C(=O)NCc4c(F)cccc4C(F)(F)F)c(C(F)(F)F)n3)cc2)c1 [Example 15, N-{[2-fluoro-6-(trifluoromethyl)phenyl]methyl}-1-({4-[(4-methylpyrazol-1-yl)methyl]phenyl}methyl)-3-(trifluoromethyl)pyrazole-4-carboxamide]	219 nM	> 10000 nM
Cc1cnn(Cc2ccc(Cn3cc(C(=O)NCc4c(F)cc(Cl)cc4F)c(C(F)(F)F)n3)cc2)c1 [Example 16, N-[(4-chloro-2,6-difluorophenyl)methyl]-1-({4-[(4-methylpyrazol-1-yl)methyl]phenyl}methyl)-3-(trifluoromethyl)pyrazole-4-carboxamide]	263 nM	> 10000 nM
Cc1cnn(Cc2ccc(Cn3cc(C(=O)NCc4cc(Cl)ccc4C(F)(F)F)c(C(F)(F)F)n3)cc2)c1 [Example 23, N-{[5-chloro-2-(trifluoromethyl)phenyl]methyl}-1-({4-[(4-methylpyrazol-1-yl)methyl]phenyl}methyl)-3-(trifluoromethyl)pyrazole-4-carboxamide]	1060 nM	> 10000 nM

Now from value to compound:

IC50 (Human plasma kallikrein)	IC50 (Human KLK1)	SMILES
865 nM	> 10000 nM	Cc1cnn(Cc2ccc(Cn3cc(C(=O)NCc4ccc(Cl)cc4F)c(C(F)(F)F)n3)cc2)c1 [Example 17, N-[(4-chloro-2-fluorophenyl)methyl]-1-({4-[(4-methylpyrazol-1-yl)methyl]phenyl}methyl)-3-(trifluoromethyl)pyrazole-4-carboxamide]
373 nM	> 10000 nM	Cc1cnn(Cc2ccc(Cn3cc(C(=O)NCc4c(F)ccc(Cl)c4F)c(C(F)(F)F)n3)cc2)c1 [Example 18, N-[(3-chloro-2,6-difluorophenyl)methyl]-1-({4-[(4-methylpyrazol-1-yl)methyl]phenyl}methyl)-3-(trifluoromethyl)pyrazole-4-carboxamide]
1130 nM	> 10000 nM	Cc1cnn(Cc2ccc(Cn3cc(C(=O)NCc4cccc(Cl)c4F)c(C(F)(F)F)n3)cc2)c1 [Example 19, N-[(3-chloro-2-fluorophenyl)methyl]-1-({4-[(4-methylpyrazol-1-yl)methyl]phenyl}methyl)-3-(trifluoromethyl)pyrazole-4-carboxamide]
740 nM	> 10000 nM	Cc1cnn(Cc2ccc(Cn3cc(C(=O)NCc4cc(Cl)ccc4F)c(C(F)(F)F)n3)cc2)c1 [Example 20, N-[(5-chloro-2-fluorophenyl)methyl]-1-({4-[(4-methylpyrazol-1-yl)methyl]phenyl}methyl)-3-(trifluoromethyl)pyrazole-4-carboxamide]
257 nM	> 10000 nM	Cc1cnn(Cc2ccc(Cn3cc(C(=O)NCc4c(C(F)(F)F)ccc(Cl)c4F)c(C(F)(F)F)n3)cc2)c1 [Example 21, N-{[3-chloro-2-fluoro-6-(trifluoromethyl)phenyl]methyl}-1-({4-[(4-methylpyrazol-1-yl)methyl]phenyl}methyl)-3-(trifluoromethyl)pyrazole-4-carboxamide]
1350 nM	> 10000 nM	Cc1cnn(Cc2ccc(Cn3cc(C(=O)NCc4c(Cl)cccc4Cl)c(C(F)(F)F)n3)cc2)c1 [Example 22, N-[(2,6-dichlorophenyl)methyl]-1-({4-[(4-methylpyrazol-1-yl)methyl]phenyl}methyl)-3-(trifluoromethyl)pyrazole-4-carboxamide]
717 nM	> 10000 nM	Cc1ccc(CNC(=O)c2cn(Cc3ccc(Cn4cc(C)cn4)cc3)nc2C(F)(F)F)c(C)c1 [Example 24, N-[(2,4-dimethylphenyl)methyl]-1-({4-[(4-methylpyrazol-1-yl)methyl]phenyl}methyl)-3-(trifluoromethyl)pyrazole-4-carboxamide]
1840 nM	> 10000 nM	Cc1cnn(Cc2ccc(Cn3cc(C(=O)NCc4c(C)cccc4C)c(C(F)(F)F)n3)cc2)c1 [Example 25, N-[(2,6-dimethylphenyl)methyl]-1-({4-[(4-methylpyrazol-1-yl)methyl]phenyl}methyl)-3-(trifluoromethyl)pyrazole-4-carboxamide]
1340 nM	> 10000 nM	Cc1cc(C)c(CNC(=O)c2cn(Cc3ccc(Cn4cc(C)cn4)cc3)nc2C(F)(F)F)c(C)c1 [Example 26, 1-({4-[(4-methylpyrazol-1-yl)methyl]phenyl}methyl)-3-(trifluoromethyl)-N-[(2,4,6-trimethylphenyl)methyl]pyrazole-4-carboxamide]
> 10000 nM	> 10000 nM	Cc1cnn(Cc2ccc(Cn3cc(C(=O)NCc4cccc(F)c4C)c(C(F)(F)F)n3)cc2)c1 [Example 27, N-[(3-fluoro-2-methylphenyl)methyl]-1-({4-[(4-methylpyrazol-1-yl)methyl]phenyl}methyl)-3-(trifluoromethyl)pyrazole-4-carboxamide]
280 nM	> 10000 nM	Cc1ccc(CNC(=O)c2cn(Cc3ccc(Cn4cc(C)cn4)cc3)nc2C(F)(F)F)c(F)c1 [Example 28, N-[(2-fluoro-4-methylphenyl)methyl]-1-({4-[(4-methylpyrazol-1-yl)methyl]phenyl}methyl)-3-(trifluoromethyl)pyrazole-4-carboxamide]
2190 nM	> 10000 nM	Cc1cnn(Cc2ccc(Cn3cc(C(=O)NCc4ncccc4F)c(C(F)(F)F)n3)cc2)c1 [Example 29, N-[(3-fluoropyridin-2-yl)methyl]-1-({4-[(4-methylpyrazol-1-yl)methyl]phenyl}methyl)-3-(trifluoromethyl)pyrazole-4-carboxamide]
915 nM	> 10000 nM	Cc1cnn(Cc2ccc(Cn3cc(C(=O)NCc4cc(Cl)ccn4)c(C(F)(F)F)n3)cc2)c1 [Example 30, N-[(4-chloropyridin-2-yl)methyl]-1-({4-[(4-methylpyrazol-1-yl)methyl]phenyl}methyl)-3-(trifluoromethyl)pyrazole-4-carboxamide]
